# Tests used:
# Flashpoint = format: physicochemical
# Viscosity index (VI) = format: physicochemical
# Pour point = format: physicochemical
# Excerpt: In addition, the inventive ester oils have a high flashpoint, such that use at relatively high oil sump and component temperatures is possible without risk. In addition, the pour point of the ester oils is relatively low, as a result of which the esters are also usable at low temperatures. For a liquid product, the pour point denotes the temperature at which it is still just free-flowing in the course of cooling. Thus, the inventive ester oils can be used within a broad temperature range.
# Kinematic viscosity = format: physicochemical
# [1] = NOACK vaporization (physical vaporization according to Noack, 250° C. for 1 h); format: physicochemical
# Excerpt: Trimethylolpropane esters (TMP-C8/C10) are commercially available from various suppliers and have been used for comparative purposes.
# Density = format: physicochemical; conditions: Table 3
# [2] = Cold Crank Simulator according to ASTM D5293; format: physicochemical
# Procedure: (§1) For the C12D13 esters and the C10D13 esters, three independently prepared samples were included in each case. For the C9D13 ester and for the D5C18 ester, one sample was analyzed in each case. The “CCS−25° C. [mPas]” and “CCS−20° C. [mPas]” columns each contain figures for the “Cold Crank Simulator” according to the standard ASTM D5293 at −25° C. and −20° C. The HTHS150° C. [mPas] column indicates what is called the “High-Temperature High-Shear Viscosity” (HTHS) at elevated temperature.
# [3] = taken from safety data sheets; cited from earlier work
# [4] = taken from safety data sheets; cited from earlier work; remark: listed apart in the source
# [5] = taken from safety data sheets; cited from earlier work; remark: listed apart in the source
# [6] = High-Temperature High-Shear Viscosity (HTHS); format: physicochemical; conditions: 150° C.
# Procedure: as §1
# [7] = UBA number 4203; cited from earlier work
# [8] = Table 3, listed as C10D13 (4th sample)
# [9] = Table 3, listed as C10D13 (5th sample)
# [10] = Table 3, listed as C12D13 (1st sample)
# [11] = Table 3, listed as C12D13 (2nd sample)
# [12] = Table 3, listed as C12D13 (3rd sample)
molecule,measurement,setting,value
CCCCCCCCCCCCCOC(=O)CCCCCCCC(=O)OCCCCCCCCCCCCC [Ditridecyl azelate],Flashpoint,"Flashpoint; Table 2, base oil",243 °C
same,VI,"Viscosity index (VI); Table 2, base oil",145
same,Pour point,"Pour point; Table 2, base oil",−55 °C
same,η40° C.,"Kinematic viscosity; Table 2, 40° C.",33.8 mm^2/s
same,η100° C.,"Kinematic viscosity; Table 2, 100° C.",6.4 mm^2/s
"trimethylolpropane ester [TMP-C8/10, reference compound]",Flashpoint,Flashpoint; Table 3,235 °C
same,NOACK,"[1]; Table 3, 250° C. for 1 h",3.6%
same,VI,Viscosity index (VI); Table 3,140
same,Pour point,Pour point; Table 3,−30 °C
same,η40° C.,"Kinematic viscosity; Table 3, 40° C.",22 mm^2/s
same,η100° C.,"Kinematic viscosity; Table 3, 100° C.",4.5 mm^2/s
same,Density,Density,0.94 g/mL
same,CCS−20° C.,[2],221 mPas
same,CCS−25° C.,[2],853 mPas
same,Aquatic toxicity OECD 201,[3],140 mg/L
same,Aquatic toxicity OECD 202,[4],600 mg/L
same,Aquatic toxicity OECD 203,[5],>10 000 mg/l
"CC(C)CCCCCCCCCCOC(=O)CCCCCCCCC(=O)OCCCCCCCCCCC(C)C [C10D13, di(isotridecyl)decanedioate]",Flashpoint,Flashpoint; Table 3,250 °C
same,NOACK,"[1]; Table 3, 250° C. for 1 h, listed as C10D13 (4th sample)",2.7%
same,NOACK,"[1]; Table 3, 250° C. for 1 h, listed as C10D13 (5th sample)",4%
same,NOACK,"[1]; Table 3, 250° C. for 1 h, listed as C10D13 (6th sample)",3.4%
same,VI,Viscosity index (VI); [8],172
same,VI,Viscosity index (VI); [9],150
same,VI,"Viscosity index (VI); Table 3, listed as C10D13 (6th sample)",149
same,Pour point,Pour point; [8],−52 °C
same,Pour point,Pour point; [9],−50 °C
same,η40° C.,"Kinematic viscosity; Table 3, 40° C., listed as C10D13 (4th sample)",35.5 mm^2/s
same,η40° C.,"Kinematic viscosity; Table 3, 40° C., listed as C10D13 (5th sample)",36.0 mm^2/s
same,η40° C.,"Kinematic viscosity; Table 3, 40° C., listed as C10D13 (6th sample)",35.7 mm^2/s
same,η100° C.,"Kinematic viscosity; Table 3, 100° C., listed as C10D13 (4th sample)",7.2 mm^2/s
same,η100° C.,"Kinematic viscosity; Table 3, 100° C., listed as C10D13 (5th sample)",6.8 mm^2/s
same,η100° C.,"Kinematic viscosity; Table 3, 100° C., listed as C10D13 (6th sample)",6.7 mm^2/s
Di(C9) dodecanedioate,Flashpoint,"Flashpoint; Table 2, base oil",245 °C
same,NOACK,"[1]; Table 2, base oil",5.0%
same,VI,"Viscosity index (VI); Table 2, base oil",189
same,η40° C.,"Kinematic viscosity; Table 2, 40° C.",24.8 mm^2/s
same,η100° C.,"Kinematic viscosity; Table 2, 100° C.",5.6 mm^2/s
CCCCCCCCC(CCCCCC)COC(=O)CCCCCCCC(=O)OCC(CCCCCC)CCCCCCCC (stereo not drawn) [Bis(2-hexyldecyl) azelate],Flashpoint,"Flashpoint; Table 2, base oil",278 °C
same,VI,"Viscosity index (VI); Table 2, base oil",160
same,Pour point,"Pour point; Table 2, base oil",−64 °C
same,η40° C.,"Kinematic viscosity; Table 2, 40° C.",33.0 mm^2/s
same,η100° C.,"Kinematic viscosity; Table 2, 100° C.",6.60 mm^2/s
Di(iso-C9) dodecanedioate,NOACK,"[1]; Table 2, base oil",6.0%
same,VI,"Viscosity index (VI); Table 2, base oil",184
same,Pour point,"Pour point; Table 2, base oil",−25 °C
same,η40° C.,"Kinematic viscosity; Table 2, 40° C.",23.2 mm^2/s
same,η100° C.,"Kinematic viscosity; Table 2, 100° C.",5.28 mm^2/s
"CC(C)CCCCCCCCCCOC(=O)CCCCCCCC(=O)OCCCCCCCCCCC(C)C [C9D13, di(isotridecyl)nonanedioate]",Flashpoint,"Flashpoint; Table 2, base oil",258 °C
same,NOACK,"[1]; Table 2, base oil",4.0%
same,NOACK,"[1]; Table 3, 250° C. for 1 h",3.5%
same,VI,"Viscosity index (VI); Table 2, base oil",124
same,VI,Viscosity index (VI); Table 3,150
same,Pour point,"Pour point; Table 2, base oil",−39 °C
same,η40° C.,"Kinematic viscosity; Table 2, 40° C.",42.4 mm^2/s
same,η100° C.,"Kinematic viscosity; Table 2, 100° C.",6.82 mm^2/s
same,η40° C.,"Kinematic viscosity; Table 3, 40° C.",36.1 mm^2/s
same,η100° C.,"Kinematic viscosity; Table 3, 100° C.",6.8 mm^2/s
"CC(C)CCCCCCCCCCOC(=O)CCCCCCCCCCC(=O)OCCCCCCCCCCC(C)C [C12D13, di(isotridecyl)dodecanedioate]",Flashpoint,"Flashpoint; Table 2, base oil",277 °C
same,Flashpoint,Flashpoint; [10],276 °C
same,Flashpoint,Flashpoint; [11],277 °C
same,Flashpoint,Flashpoint; [12],261 °C
same,NOACK,"[1]; Table 2, base oil",5.7%
same,NOACK,"[1]; Table 3, 250° C. for 1 h, listed as C12D13 (1st sample)",2.4%
same,NOACK,"[1]; Table 3, 250° C. for 1 h, listed as C12D13 (2nd sample)",4.3%
same,NOACK,"[1]; Table 3, 250° C. for 1 h, listed as C12D13 (3rd sample)",2.9%
same,VI,"Viscosity index (VI); Table 2, base oil",158
same,VI,Viscosity index (VI); [10],158
same,VI,Viscosity index (VI); [11],147
same,VI,Viscosity index (VI); [12],156
same,Pour point,"Pour point; Table 2, base oil",−57 °C
same,Pour point,Pour point; [10],−48 °C
same,Pour point,Pour point; [11],−57 °C
same,Pour point,Pour point; [12],−51 °C
same,η40° C.,"Kinematic viscosity; Table 2, 40° C.",42.0 mm^2/s
same,η100° C.,"Kinematic viscosity; Table 2, 100° C.",7.5 mm^2/s
same,η40° C.,"Kinematic viscosity; Table 3, 40° C., listed as C12D13 (1st sample)",40.47 mm^2/s
same,η40° C.,"Kinematic viscosity; Table 3, 40° C., listed as C12D13 (2nd sample)",42.0 mm^2/s
same,η40° C.,"Kinematic viscosity; Table 3, 40° C., listed as C12D13 (3rd sample)",41.2 mm^2/s
same,η100° C.,"Kinematic viscosity; Table 3, 100° C., listed as C12D13 (1st sample)",7.573 mm^2/s
same,η100° C.,"Kinematic viscosity; Table 3, 100° C., listed as C12D13 (2nd sample)",7.5 mm^2/s
same,η100° C.,"Kinematic viscosity; Table 3, 100° C., listed as C12D13 (3rd sample)",7.6 mm^2/s
same,η150° C.,"Kinematic viscosity; Table 3, 150° C.",3.45 mm²/s
same,Density,Density; listed as C12D13 (1st sample),0.9051 g/mL
same,Density,Density; listed as C12D13 (2nd sample),0.9020 g/mL
same,Density,Density; listed as C12D13 (3rd sample),0.904 g/mL
same,CCS−20° C.,[2]; listed as C12D13 (1st sample),1910 mPas
same,CCS−20° C.,[2]; listed as C12D13 (2nd sample),1700 mPas
same,CCS−25° C.,[2]; listed as C12D13 (1st sample),3210 mPas
same,CCS−25° C.,[2]; listed as C12D13 (3rd sample),3230 mPas
same,HTHS150° C.,[6],2.7 mPa·s
same,Aquatic toxicity OECD 202,[4],880 mg/L
same,Aquatic toxicity OECD 203,[5],>1000 mg/L
same,water endangerment class (WGK),[7],WGK 1
